Test results as given in ChEMBL document CHEMBL4152351, “Isoxazolo[3,4-d]pyridazinones positively modulate the metabotropic glutamate subtypes 2 and 4” (Bioorg Med Chem, 2018).

Key:
[1] = target: Metabotropic glutamate receptor 4 (Homo sapiens) (UniProt Q14833); assay: Antagonist activity at Gi-coupled mGluR4 (unknown origin) expressed in CHO cells assessed as decrease in glutamate-induced inhibition of forskolin-stimulated cAMP accumulation after 1 hr by glosensor based luciferase reporter gene assay relative to control; assay type: functional, cell-based; set-up: concentration or dose not given beside the values; settings: concentration not given here
[2] = target: Metabotropic glutamate receptor 5 (Homo sapiens, UniProt P41594); assay: Displacement of MPEP from mGluR5 (unknown origin) after 3 hrs by liquid scintillation counting method
Homo sapiens = organism: Homo sapiens; assay: Displacement of muscimol from GABA-A receptor (unknown origin) after 90 mins by liquid scintillation counting method; set-up: concentration or dose not given beside the values
[3] = target: Glutamate [NMDA] receptor; assay: Displacement of [3H]MK-801 from NMDA receptor (unknown origin) after 3 hrs by liquid scintillation counting method; assay type: protein-complex assay, Homo sapiens
[4] = target: Metabotropic glutamate receptor 2 (Homo sapiens) (UniProt Q14416); assay: Antagonist activity at Gi-coupled mGluR2 (unknown origin) expressed in CHO cells assessed as decrease in glutamate-induced inhibition of forskolin-stimulated cAMP accumulation after 1 hr by glosensor based luciferase reporter gene assay relative to control; assay type: functional, cell-based; set-up: concentration or dose not given beside the values; settings: concentration not given here
Metabotropic glutamate receptor 2 (Homo sapiens), sequence (Q14416 19-872 limits assumed): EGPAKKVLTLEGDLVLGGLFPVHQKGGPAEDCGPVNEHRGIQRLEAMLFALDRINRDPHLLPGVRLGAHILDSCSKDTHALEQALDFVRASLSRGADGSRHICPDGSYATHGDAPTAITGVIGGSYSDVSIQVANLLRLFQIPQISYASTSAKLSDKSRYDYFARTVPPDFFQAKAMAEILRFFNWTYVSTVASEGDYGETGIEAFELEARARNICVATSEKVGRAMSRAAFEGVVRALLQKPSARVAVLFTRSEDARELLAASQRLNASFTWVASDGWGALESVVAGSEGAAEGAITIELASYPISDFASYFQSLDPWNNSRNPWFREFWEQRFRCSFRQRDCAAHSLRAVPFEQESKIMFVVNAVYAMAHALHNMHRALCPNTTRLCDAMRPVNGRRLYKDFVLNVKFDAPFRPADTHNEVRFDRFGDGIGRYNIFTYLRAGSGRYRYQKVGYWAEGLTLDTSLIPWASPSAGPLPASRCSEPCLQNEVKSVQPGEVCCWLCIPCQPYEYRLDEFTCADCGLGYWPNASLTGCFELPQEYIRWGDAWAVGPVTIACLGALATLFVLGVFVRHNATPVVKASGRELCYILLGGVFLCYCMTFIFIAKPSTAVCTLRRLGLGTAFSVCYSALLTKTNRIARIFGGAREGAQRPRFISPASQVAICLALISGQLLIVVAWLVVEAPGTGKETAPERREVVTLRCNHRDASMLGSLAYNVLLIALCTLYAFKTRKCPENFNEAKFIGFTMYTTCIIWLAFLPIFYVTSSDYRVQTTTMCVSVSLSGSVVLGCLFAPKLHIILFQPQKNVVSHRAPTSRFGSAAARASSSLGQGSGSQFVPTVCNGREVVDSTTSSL

Metabotropic glutamate receptor 5, sequence (P41594 whole entry): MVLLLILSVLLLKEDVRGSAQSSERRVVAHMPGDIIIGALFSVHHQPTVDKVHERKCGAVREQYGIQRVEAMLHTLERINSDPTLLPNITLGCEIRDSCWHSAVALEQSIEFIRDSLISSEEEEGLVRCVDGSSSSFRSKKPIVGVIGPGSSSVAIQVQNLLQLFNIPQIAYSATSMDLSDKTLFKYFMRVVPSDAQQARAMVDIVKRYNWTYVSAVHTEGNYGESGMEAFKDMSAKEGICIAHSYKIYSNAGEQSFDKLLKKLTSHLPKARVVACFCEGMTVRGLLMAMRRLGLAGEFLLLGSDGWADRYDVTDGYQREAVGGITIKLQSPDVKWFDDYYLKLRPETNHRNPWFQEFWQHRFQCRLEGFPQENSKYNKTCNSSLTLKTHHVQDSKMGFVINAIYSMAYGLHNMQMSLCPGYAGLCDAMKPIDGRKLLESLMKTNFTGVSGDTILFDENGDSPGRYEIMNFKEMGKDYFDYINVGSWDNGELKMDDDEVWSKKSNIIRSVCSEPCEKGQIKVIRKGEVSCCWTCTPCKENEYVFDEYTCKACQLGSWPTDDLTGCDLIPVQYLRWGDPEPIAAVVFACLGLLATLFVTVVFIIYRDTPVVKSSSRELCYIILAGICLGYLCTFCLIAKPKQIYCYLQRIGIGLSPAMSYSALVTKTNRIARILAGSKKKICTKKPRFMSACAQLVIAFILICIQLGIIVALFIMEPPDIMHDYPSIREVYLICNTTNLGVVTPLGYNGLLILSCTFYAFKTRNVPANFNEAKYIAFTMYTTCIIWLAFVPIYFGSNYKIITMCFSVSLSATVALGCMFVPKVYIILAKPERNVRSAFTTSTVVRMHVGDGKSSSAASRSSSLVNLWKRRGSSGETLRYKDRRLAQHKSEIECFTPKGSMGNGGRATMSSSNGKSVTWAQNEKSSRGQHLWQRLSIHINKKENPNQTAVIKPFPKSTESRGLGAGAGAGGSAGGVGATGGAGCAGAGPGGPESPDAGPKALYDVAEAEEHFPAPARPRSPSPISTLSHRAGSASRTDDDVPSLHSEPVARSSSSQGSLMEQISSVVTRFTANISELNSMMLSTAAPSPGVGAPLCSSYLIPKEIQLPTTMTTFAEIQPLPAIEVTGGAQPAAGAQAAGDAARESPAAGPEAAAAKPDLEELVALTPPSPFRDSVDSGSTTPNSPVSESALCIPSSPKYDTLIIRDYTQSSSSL
Metabotropic glutamate receptor 4 (Homo sapiens), sequence (Q14833 whole entry): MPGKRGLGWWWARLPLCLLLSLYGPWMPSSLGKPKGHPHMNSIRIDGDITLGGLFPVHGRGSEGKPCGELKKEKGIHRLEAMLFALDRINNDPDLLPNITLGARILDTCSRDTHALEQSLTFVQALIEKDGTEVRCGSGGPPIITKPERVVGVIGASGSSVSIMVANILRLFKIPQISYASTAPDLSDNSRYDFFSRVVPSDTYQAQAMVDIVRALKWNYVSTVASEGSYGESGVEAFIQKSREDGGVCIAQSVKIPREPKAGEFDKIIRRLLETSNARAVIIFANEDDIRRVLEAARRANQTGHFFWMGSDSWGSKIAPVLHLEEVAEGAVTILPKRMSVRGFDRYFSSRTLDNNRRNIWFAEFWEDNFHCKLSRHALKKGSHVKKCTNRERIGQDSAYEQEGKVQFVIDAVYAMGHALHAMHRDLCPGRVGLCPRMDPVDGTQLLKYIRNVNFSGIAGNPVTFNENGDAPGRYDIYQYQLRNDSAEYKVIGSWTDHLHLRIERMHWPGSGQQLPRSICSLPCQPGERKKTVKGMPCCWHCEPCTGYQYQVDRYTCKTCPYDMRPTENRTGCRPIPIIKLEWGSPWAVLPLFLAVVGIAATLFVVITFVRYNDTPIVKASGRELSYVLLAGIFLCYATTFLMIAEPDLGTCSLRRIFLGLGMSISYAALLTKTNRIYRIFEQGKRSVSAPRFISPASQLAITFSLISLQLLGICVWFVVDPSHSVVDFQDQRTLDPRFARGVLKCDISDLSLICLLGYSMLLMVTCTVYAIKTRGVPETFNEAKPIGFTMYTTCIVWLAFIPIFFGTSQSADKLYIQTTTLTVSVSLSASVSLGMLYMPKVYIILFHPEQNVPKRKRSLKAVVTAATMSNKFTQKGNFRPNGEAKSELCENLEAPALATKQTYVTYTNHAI

inhibition [1] [%] | Ki [2] [µM] | inhibition (Homo sapiens) [%] | Ki [3] [µM] | inhibition [4] [%] | SMILES
3 | > 10 | -6 | > 10 | 23 | Cc1nn(-c2ccc(F)cc2)c(=O)c2nocc12
 | 0.033 |  |  |  | CN1CC(=O)N=C1NC(=O)Nc1cccc(Cl)c1 [FENOBAM ANHYDROUS]
-7 | > 10 | -10 | > 10 |  | Cc1nn(-c2ccc(F)cc2F)c(=O)c2nocc12
-9 | 1.88 |  | > 10 |  | Cc1ccc(-n2nc(C)c3conc3c2=O)cc1
11 |  | -7.2 | > 10 | 0 | Cc1nn(-c2cc(C(F)(F)F)cc(C(F)(F)F)c2)c(=O)c2nocc12
-5 | > 10 | -6 | > 10 |  | Cc1nn(-c2ccccc2)c(=O)c2nocc12
9 | > 10 |  | > 10 |  | COc1ccc(-n2nc(C)c3conc3c2=O)cc1
-10 | > 10 |  | > 10 | 48 | Cc1nn(-c2cccc([N+](=O)[O-])c2)c(=O)c2nocc12
-3 | > 10 | -4.7 | > 10 | 5 | Cc1nn(-c2ccc([N+](=O)[O-])cc2)c(=O)c2nocc12
-6 | 3.08 | -7.8 | > 10 | 11 | Cc1nn(-c2cc(Cl)cc(Cl)c2)c(=O)c2nocc12
